# In patent US5660992A, “Sialic acid/fucose based assay reagents and assay methods” (Glycomed Incorporated, priority 1995, dated 1997):
# How the values were obtained:
# L-selectin IgG chimera = target: T1, L-selectin IgG chimera (Homo sapiens, UniProt P14151); assay: ELISA: blocking of L-selectin IgG chimera binding to 2,3sLex glycolipid; details: FIG. 5 and FIG. 6; several concentrations
# T1 sequence (P14151 39-332 limits assumed): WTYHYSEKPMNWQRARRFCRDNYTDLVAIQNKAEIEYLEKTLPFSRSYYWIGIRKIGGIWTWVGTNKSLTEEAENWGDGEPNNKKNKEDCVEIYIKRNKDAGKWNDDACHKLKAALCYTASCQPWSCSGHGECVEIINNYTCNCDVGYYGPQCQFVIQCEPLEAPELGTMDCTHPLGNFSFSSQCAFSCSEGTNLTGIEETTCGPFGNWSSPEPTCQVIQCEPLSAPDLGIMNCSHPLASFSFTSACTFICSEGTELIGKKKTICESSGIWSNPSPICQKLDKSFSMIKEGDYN
# Source text: FIG. 5 is a graph showing the results of Elisa assays carried out to determine the ability of three different compounds to block the binding of 2,3,sialyl-Le^x to L-selectin IgG chimera. The compounds tested were GM 1222, GM 1279 and GM 1398. The results are expressed as per cent of control binding.
# FIG. 6 is a graph showing the results of Elisa assays carried out to determine the ability of GM 1221 to block the binding of 2,3,sialyl-Le^x to L-selectin IgG chimera. The results are expressed as per cent of control binding.
# An ELISA assay was employed that uses recombinant fusion proteins composed of extracellular portions of the human selectins joined to human immunoglobulin heavy chain CH3, CH2, and hinge regions. See, for example, Walz et al., Science (1990) 250:1132; Aruffo et al., Cell (1991) 67:35; Aruffo et al., Proc. Natl. Acad. Sci. USA (1992) 89:2292. […]
# The positive control is the signal produced by the soluble receptor when it is allowed to react with 2,3sLex glycolipid in the microtiter wells in the absence of any inhibitor. […] The signal produced by the receptor that had been previously treated with an inhibitor (recorded as O.D.), was divided by the signal produced by the positive control and multiplied by 100 to calculate the % receptor bound to the well, or as expressed in the figures, the per cent of control binding. […]
# [1] = system: neutrophil migration to the peritoneal cavity; assay: Murine thioglycollate induced peritonitis model; assay type: in vivo, mice; details: FIG. 7; for inhibition of neutrophil migration into the peritoneum: female Swiss Webster mice, compound in tail vein, thioglycollate i.p., cells counted after three hours
# Procedure: Mice were injected with saline alone (sal/-), thioglycollate and phosphate buffered saline (TG/PBS) or thioglycollate and GM 1221 or GM 1398 (TG/GM 1221 or TG/1398), and the number of neutrophils in the peritoneal cavity measured.
# The efficaciousness of GM 1221, and GM 1398 was shown using a murine thioglycollate induced peritonitis model. The assay. materials and methods are known in the art, or are generally described by Lewinsohn, D. et al., J. Immun., 138:4313-4321 (1987), or Watson, S. et.al., Nature 349:164-166 (1991).
# This assay measures the ability of the compounds to inhibit neutrophil migation to the peritoneal cavity, the migration being initiated by the presence of thioglycollate in the peritoneal cavity. Thioglycollate is a known and effective inflammatory agent that causes neutrophil migration into the mouse peritoneum when it is administered intraperitoneally. Lewinsohn, D. et al., J. Immun. (1987) 138:4313-4321.
# Briefly, female Swiss Webster mice weighing about 25 grams were injected in the tail vein with 200 ul of phosphate buffered saline (PBS) with or without the appropriate compound. The pH of the solutions was adjusted to neutrality by the addition of either NaOH or HCL and sterilized by filtration through a 0.2 u filter.
# Immediately following injection with the appropriate compound or PBS, the mice were injected intraperitoneally with 1 ml of thioglycollate medium prepared as described by the manufacturer, BBL. Three hours following injection of the thioglycollate solution the mice were sacrificed by CO2 asphyxiation, and the number of cells in the peritoneum removed by lavage with 5 ml of heparinized (5 U/ml) 0.9% sodium chloride solution containing 0.1% bovine serum albumin. Cell number was determined using a Coulter Counter. The cells were prepared for counting by diluting the lavage fluid with 1:50 of a commercial physiological isotonic solution, Isoton II, and the cells-lysed by adding S/P Lysing and Hemoglobin Reagent (1:100 final dilution). Cell nuclei were counted in a sized window with lower and upper limits set at 3.9 and 5.7 um, respectively.
"inhibition of L-selectin binding to 2,3sLex glycolipid (per cent of control binding) (L-selectin IgG chimera)",Structure (SMILES),inhibition of neutrophil migration into the peritoneum [1],"additional inhibition of neutrophil migration relative to GM 1221 ([1]; same mouse peritonitis model, comparison with GM 1221)"
inhibits L-selectin binding,CC(OCCCCCCOC1O[C@@H](C)[C@@H](O)[C@@H](O)[C@@H]1O)C(=O)O (stereo partly shown) [GM 1221],inhibit neutrophil migration into the peritoneum,
,"CC(=O)N[C@H]1[C@H]([C@H](O)[C@H](O)CO)O[C@@](OCCCCCCO[C@@H]2O[C@@H](C)[C@@H](O)[C@@H](O)[C@@H]2O)(C(=O)O)C[C@@H]1O [GM 1398, 1-O-α-Neu5Ac-(6-O-α-L-Fucopyranosyl)-Hexane]",inhibit neutrophil migration into the peritoneum,about 30%
